Results as given in the supplement of paper PMC11451515.

Assays:
Experiment in all cases: AUC of viability dose-response curve (% viability x log10 dose units); higher = less sensitive
Conditions in all cases: 48 h
NOMO1 = test system: NOMO1
In short: (§1)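 Leukemia cells adapted to each medium were seeded at 500 or 1000 cells/well in 1536-well plates and dosed with library compounds in DMSO at 11 threefold doses from 47 μM to 0.79 nM for 48 h at 37°C. CellTiter-Glo One luminescence was normalised per plate to DMSO and cell-free wells, then fitted with a four-parameter log-logistic model over log10 doses. Area under the curve was taken from this fit by the trapezoidal rule, with curves above full viability scaled and curves failing quality control removed.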

P12-Ichikawa = test system: P12-Ichikawa
In short: as §1

SEM cells = test system: SEM cells
In short: as §1

[1] = RPMI 5 mM glucose + 10% dialyzed FBS

| Structure (SMILES) | AUC of viability dose-response curve (NOMO1; HPLM + 10% dialyzed FBS) | AUC of viability dose-response curve (NOMO1; RPMI 5 mM glucose + 10% FBS) | AUC of viability dose-response curve (NOMO1; [1]) | AUC of viability dose-response curve (P12-Ichikawa; HPLM + 10% dialyzed FBS) | AUC of viability dose-response curve (P12-Ichikawa; RPMI 5 mM glucose + 10% FBS) | AUC of viability dose-response curve (P12-Ichikawa; [1]) | AUC of viability dose-response curve (SEM cells; HPLM + 10% dialyzed FBS) | AUC of viability dose-response curve (SEM cells; RPMI 5 mM glucose + 10% FBS) | AUC of viability dose-response curve (SEM cells; [1]) |
| --- | --- | --- | --- | --- | --- | --- | --- | --- | --- |
| CC1OC(OC/2=C(/OC3=C(C(=CC(=C3)O)O)C2=O)C4=CC=C(O)C=C4)C(O)C(OC(C)=O)C1OC(C)=O (stereo not given) | 440 | 430 | 466 | 454 | 455 | 460 | 463 | 367 | 465 |
| c1cc(-c2sc(-c3ccncc3)c(-c3ccncc3)c2-c2ccncc2)ccn1 | 472 | 439 | 464 | 472 | 466 | 471 | 377 | 350 | 365 |
| CCc1cc(/C(C)=N/OCc2ccc(C3CCCCC3)c(C(F)(F)F)c2)ccc1CN1CC(C(=O)O)C1 | 385 | 418 | 420 | 418 | 414 | 414 | 455 | 452 | 463 |
| c1ccc(-c2nn3c(c2-c2ccnc4cc(OCCN5CCOCC5)ccc24)CCC3)nc1 | 450 | 467 | 471 | 438 | 420 | 448 | 458 | 468 | 472 |
| CC(C)(Cc1ccc2ccccc2c1)NC[C@@H](O)COc1cccc(Cl)c1C#N | 458 | 455 | 451 | 453 | 449 | 451 | 448 | 466 | 438 |
| C[C@@]12OC(=O)[C@@]1(NC(=O)[C@@H]2CCCl)[C@@H](O)[C@H]\3CCC\C=C3 | 243 | 254 | 254 | 256 | 253 | 247 | 183 | 182 | 177 |
| CCOc1cc2c(c(F)c1OCC)C(=N)N(CC(=O)c1cc(N3CCOCC3)c(OC)c(C(C)(C)C)c1)C2 | 464 | 435 | 453 | 465 | 472 | 475 | 465 | 464 | 453 |
| Nc1cccc(-c2cc3c(Oc4cccc(O)c4)ncnc3[nH]2)c1 | 445 | 463 | 460 | 423 | 431 | 436 | 414 | 415 | 414 |
| CCC(=O)O[C@@]1([C@H](C)C[C@H]2[C@@H]3C[C@H](F)\C4=C\C(=O)\C=C/[C@]4(C)[C@@]3(F)[C@@H](O)C[C@]12C)C(=O)SCF | 455 | 465 | 439 | 342 | 292 | 290 | 328 | 325 | 280 |
| CC(C)c1ccc2oc3nc(N)c(C(=O)O)cc3c(=O)c2c1 | 469 | 470 | 472 | 467 | 470 | 474 | 466 | 449 | 462 |
| COC1=CC=C(C=C1)C/2=C/OC3=CC(=CC=C3C2=O)O | 422 | 451 | 437 | 451 | 461 | 456 | 445 | 458 | 430 |
| c1ccc2c(Oc3nc(Nc4ccc(N5CCOCC5)cc4)c4ncn(C5CCCCC5)c4n3)cccc2c1 | 439 | 440 | 466 | 451 | 462 | 466 | 462 | 452 | 458 |
| CC1(C)O[C@H]2CC(=O)OC[C@]23[C@H]2CC[C@@]4(C)[C@H](c5ccoc5)OC(=O)[C@H]5O[C@]54[C@]2(C)C(=O)C[C@@H]13 | 462 | 465 | 461 | 468 | 446 | 469 | 463 | 444 | 438 |
| N#Cc1c(C2CCNCC2)cc(-c2c(O)cccc2OCC2CC2)nc1N | 455 | 450 | 447 | 453 | 430 | 446 | 441 | 446 | 435 |
| CN(C)[C@H]\1[C@@H]2[C@@H](O)[C@@H]\3C(=C)C4=C(C(=CC=C4)O)C(=O)C3=C(\O)[C@@]2(O)C(=O)\C(=C1O)C(N)=O | 449 | 462 | 474 | 465 | 468 | 472 | 452 | 463 | 466 |
| CC1(C)CC(=O)c2c(C(F)(F)F)nn(-c3ccc(C(N)=O)c(NC4CCC(OC(=O)CN)CC4)c3)c2C1 (stereo not given) | 292 | 273 | 281 | 346 | 297 | 308 | 288 | 290 | 276 |
| COc1ccc(-c2c(-c3ccc(O)cc3O)n[nH]c2C)cc1 | 449 | 467 | 466 | 465 | 464 | 468 | 428 | 405 | 431 |
| OC1=C(C=CC=C1)C2=CC=C(C=C2)C3=CSC4=C3C(=C(/C#N)C(=O)N4)/O | 462 | 449 | 453 | 448 | 456 | 453 | 453 | 434 | 457 |
| O=C(C1CCCCC1)N1CC(=O)N2CCc3ccccc3C2C1 (stereo not given) | 445 | 466 | 452 | 386 | 385 | 369 | 434 | 407 | 406 |
| CNC(=O)c1c(F)cccc1Nc1nc(Nc2cc3c(cc2OC)CCN3C(=O)CN(C)C)nc2[nH]ccc12 | 384 | 459 | 454 | 446 | 463 | 454 | 269 | 253 | 272 |
